Assay results taken from ChEMBL document CHEMBL1201862, “PubChem BioAssay data set” (2004).
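96-well plates; 48 h exposure; 5 concentrations. Endpoints by linear interpolation between flanking doses. Not reached: highest tested concentration assigned. At the GI50, growth is halved.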 Activity calls are given as the source filed them. Cut-off read from the data, not from the text of the source: active = GI50 up to about 1.1 µM and inactive = higher.

Experiments:
Assay in all cases: DTP human tumour cell line panel, 48 h
COLO 205 = test system: COLO 205
NCI/ADR-RES = test system: NCI/ADR-RES
CAKI-1 = test system: CAKI-1
UO-31 = test system: UO-31
LOX IMVI = test system: LOX IMVI
ACHN = test system: ACHN
786-0 = test system: 786-0
UACC-257 = test system: UACC-257
SF-268 = test system: SF-268
TK-10 = test system: TK-10
SN12C = test system: SN12C
SW-620 = test system: SW-620
UACC-62 = test system: UACC-62
HOP-62 = test system: HOP-62
K562 = test system: K562
T47D = test system: T47D
NCI-H226 = test system: NCI-H226
RXF 393 = test system: RXF 393
SK-OV-3 = test system: SK-OV-3
IGROV-1 = test system: IGROV-1
NCI-H522 = test system: NCI-H522
OVCAR-4 = test system: OVCAR-4
KM12 = test system: KM12
SNB-75 = test system: SNB-75
HCC 2998 = test system: HCC 2998
M14 = test system: M14
Malme-3M = test system: Malme-3M
HT-29 = test system: HT-29
MCF7 = test system: MCF7
HL-60 = test system: HL-60
HCT-116 = test system: HCT-116
DU-145 = test system: DU-145
U-251 = test system: U-251
Hs-578T = test system: Hs-578T
SF-295 = test system: SF-295
SK-MEL-28 = test system: SK-MEL-28
OVCAR-5 = test system: OVCAR-5
A549 = test system: A549
HOP-92 = test system: HOP-92
SK-MEL-2 = test system: SK-MEL-2
A498 = test system: A498
HCT-15 = test system: HCT-15
SK-MEL-5 = test system: SK-MEL-5
OVCAR-8 = test system: OVCAR-8
OVCAR-3 = test system: OVCAR-3
MDA-N = test system: MDA-N
NCI-H460 = test system: NCI-H460
NCI-H23 = test system: NCI-H23
SNB-19 = test system: SNB-19
SF-539 = test system: SF-539
SR = test system: SR
MDA-MB-435 = test system: MDA-MB-435
EKVX = test system: EKVX
PC-3 = test system: PC-3
CCRF-CEM = test system: CCRF-CEM
MDA-MB-231 = test system: MDA-MB-231
MOLT-4 = test system: MOLT-4
RPMI-8226 = test system: RPMI-8226

SMILES: C1CCCCC2(CCCCCCCCC3(CCC1)OCCO3)OCCO2
- GI50 (COLO 205): > 100 µM (inactive)
- GI50 (NCI/ADR-RES): > 100 µM (inactive)
- GI50 (CAKI-1): > 100 µM (inactive)
- GI50 (UO-31): < 0.01 µM (active)
- GI50 (LOX IMVI): > 100 µM (inactive)
- GI50 (ACHN): > 100 µM (inactive)
- GI50 (786-0): > 100 µM (inactive)
- GI50 (UACC-257): > 100 µM (inactive)
- GI50 (SF-268): > 100 µM (inactive)
- GI50 (TK-10): > 100 µM (inactive)
- GI50 (SN12C): > 100 µM (inactive)
- GI50 (SW-620): > 100 µM (inactive)
- GI50 (UACC-62): > 100 µM (inactive)
- GI50 (HOP-62): > 100 µM (inactive)
- GI50 (K562): > 100 µM (inactive)
- GI50 (T47D): > 100 µM (inactive)
- GI50 (NCI-H226): > 100 µM (inactive)
- GI50 (RXF 393): > 100 µM (inactive)
- GI50 (SK-OV-3): > 100 µM (inactive)
- GI50 (IGROV-1): > 100 µM (inactive)
- GI50 (NCI-H522): > 100 µM (inactive)
- GI50 (OVCAR-4): > 100 µM (inactive)
- GI50 (KM12): > 100 µM (inactive)
- GI50 (SNB-75): > 100 µM (inactive)
- GI50 (HCC 2998): > 100 µM (inactive)
- GI50 (M14): > 100 µM (inactive)
- GI50 (Malme-3M): > 100 µM (inactive)
- GI50 (HT-29): > 100 µM (inactive)
- GI50 (MCF7): > 100 µM (inactive)
- GI50 (HL-60): > 100 µM (inactive)
- GI50 (HCT-116): > 100 µM (inactive)
- GI50 (DU-145): > 100 µM (inactive)
- GI50 (U-251): > 100 µM (inactive)
- GI50 (Hs-578T): > 100 µM (inactive)
- GI50 (SF-295): > 100 µM (inactive)
- GI50 (SK-MEL-28): > 100 µM (inactive)
- GI50 (OVCAR-5): > 100 µM (inactive)
- GI50 (A549): > 100 µM (inactive)
- GI50 (HOP-92): > 100 µM (inactive)
- GI50 (SK-MEL-2): > 100 µM (inactive)
- GI50 (A498): > 100 µM (inactive)
- GI50 (HCT-15): > 100 µM
- GI50 (SK-MEL-5): > 100 µM (inactive)
- GI50 (OVCAR-8): > 100 µM (inactive)
- GI50 (OVCAR-3): > 100 µM (inactive)
- GI50 (MDA-N): > 100 µM (inactive)
- GI50 (NCI-H460): > 100 µM (inactive)
- GI50 (NCI-H23): > 100 µM (inactive)
- GI50 (SNB-19): > 100 µM (inactive)
- GI50 (SF-539): > 100 µM (inactive)
- GI50 (SR): > 100 µM (inactive)
- GI50 (MDA-MB-435): > 100 µM (inactive)
- GI50 (EKVX): > 100 µM (inactive)
- GI50 (PC-3): > 100 µM (inactive)

SMILES: CC(C)C1=CC23CCC4C(C)(C(=O)O)CCCC4(C)C2CC1C1C(=O)N(c2ccc(N4C(=O)C5C6CC7C8(C)CCCC(C)(C(=O)O)C8CCC7(C=C6C(C)C)C5C4=O)cc2)C(=O)C13 (configuration not stated)
- GI50 (COLO 205): 3.47 µM (inactive)
- GI50 (UO-31): 18.5 µM (inactive)
- GI50 (ACHN): 5.9 µM (inactive)
- GI50 (786-0): 13.1 µM (inactive)
- GI50 (SF-268): 4.7 µM (inactive)
- GI50 (TK-10): 16.4 µM (inactive)
- GI50 (SN12C): 4.46 µM (inactive)
- GI50 (SW-620): 8.41 µM (inactive)
- GI50 (HOP-62): 5.12 µM (inactive)
- GI50 (K562): 4.35 µM (inactive)
- GI50 (T47D): 12.1 µM (inactive)
- GI50 (NCI-H226): 3.45 µM (inactive)
- GI50 (RXF 393): 11.7 µM (inactive)
- GI50 (NCI-H522): 4.98 µM (inactive)
- GI50 (OVCAR-4): 10.4 µM (inactive)
- GI50 (KM12): 4.17 µM (inactive)
- GI50 (CCRF-CEM): 3.85 µM (inactive)
- GI50 (HCC 2998): 4.41 µM (inactive)
- GI50 (M14): 4.16 µM (inactive)
- GI50 (Malme-3M): 14.1 µM (inactive)
- GI50 (HT-29): 2.45 µM (inactive)
- GI50 (MCF7): 3.33 µM (inactive)
- GI50 (HL-60): 3.4 µM (inactive)
- GI50 (HCT-116): 3.38 µM (inactive)
- GI50 (MDA-MB-231): 4.58 µM (inactive)
- GI50 (DU-145): 4.71 µM (inactive)
- GI50 (U-251): 4.28 µM (inactive)
- GI50 (Hs-578T): 6.22 µM (inactive)
- GI50 (SK-MEL-28): 4.49 µM (inactive)
- GI50 (OVCAR-5): 10.3 µM (inactive)
- GI50 (MOLT-4): 3.51 µM (inactive)
- GI50 (A549): 6.1 µM (inactive)
- GI50 (HOP-92): 14.7 µM (inactive)
- GI50 (SK-MEL-2): 13.5 µM (inactive)
- GI50 (A498): 11.2 µM (inactive)
- GI50 (HCT-15): 12.6 µM
- GI50 (SK-MEL-5): 3.44 µM (inactive)
- GI50 (OVCAR-8): 4.89 µM (inactive)
- GI50 (OVCAR-3): 5.71 µM (inactive)
- GI50 (MDA-N): 4.43 µM (inactive)
- GI50 (NCI-H23): 3.79 µM (inactive)
- GI50 (SNB-19): 4.75 µM (inactive)
- GI50 (RPMI-8226): 3.96 µM (inactive)
- GI50 (SF-539): 4.3 µM (inactive)
- GI50 (SR): 3.59 µM (inactive)
- GI50 (MDA-MB-435): 3.68 µM (inactive)
- GI50 (EKVX): 4.09 µM (inactive)
- GI50 (PC-3): 3.2 µM (inactive)

SMILES: N[C@@H](Cc1ccc2oc3cc(=O)c4ccccc4c-3nc2c1)C(=O)O
- GI50 (COLO 205): 11.5 µM (inactive)
- GI50 (NCI/ADR-RES): > 100 µM (inactive)
- GI50 (CAKI-1): > 100 µM (inactive)
- GI50 (UO-31): > 100 µM (inactive)
- GI50 (LOX IMVI): 37.8 µM (inactive)
- GI50 (ACHN): 48.2 µM (inactive)
- GI50 (786-0): > 100 µM (inactive)
- GI50 (UACC-257): 18.1 µM (inactive)
- GI50 (SF-268): > 100 µM (inactive)
- GI50 (TK-10): > 100 µM (inactive)
- GI50 (SN12C): 55.5 µM (inactive)
- GI50 (SW-620): > 100 µM (inactive)
- GI50 (UACC-62): 27.4 µM (inactive)
- GI50 (HOP-62): 21.9 µM (inactive)
- GI50 (K562): > 100 µM (inactive)
- GI50 (T47D): > 100 µM (inactive)
- GI50 (NCI-H226): 34 µM (inactive)
- GI50 (RXF 393): > 100 µM (inactive)
- GI50 (SK-OV-3): > 100 µM (inactive)
- GI50 (IGROV-1): > 100 µM (inactive)
- GI50 (NCI-H522): 39.7 µM (inactive)
- GI50 (OVCAR-4): > 100 µM (inactive)
- GI50 (KM12): > 100 µM (inactive)
- GI50 (SNB-75): 15 µM (inactive)
- GI50 (CCRF-CEM): 38.5 µM (inactive)
- GI50 (M14): 15.3 µM (inactive)
- GI50 (Malme-3M): 3.37 µM (inactive)
- GI50 (HT-29): 31.5 µM (inactive)
- GI50 (MCF7): 2.36 µM (inactive)
- GI50 (HL-60): > 100 µM (inactive)
- GI50 (HCT-116): > 100 µM (inactive)
- GI50 (MDA-MB-231): > 100 µM (inactive)
- GI50 (DU-145): 19.5 µM (inactive)
- GI50 (U-251): 36.3 µM (inactive)
- GI50 (Hs-578T): 45.8 µM (inactive)
- GI50 (SF-295): 30.4 µM (inactive)
- GI50 (SK-MEL-28): 62.4 µM (inactive)
- GI50 (OVCAR-5): > 100 µM (inactive)
- GI50 (MOLT-4): 40.7 µM (inactive)
- GI50 (A549): 40.2 µM (inactive)
- GI50 (HOP-92): > 100 µM (inactive)
- GI50 (A498): > 100 µM (inactive)
- GI50 (HCT-15): 57.4 µM
- GI50 (SK-MEL-5): 11.7 µM (inactive)
- GI50 (OVCAR-8): 49 µM (inactive)
- GI50 (OVCAR-3): 27.2 µM (inactive)
- GI50 (MDA-N): 16.6 µM (inactive)
- GI50 (NCI-H460): 31.1 µM (inactive)
- GI50 (NCI-H23): 13.4 µM (inactive)
- GI50 (SNB-19): 26.4 µM (inactive)
- GI50 (RPMI-8226): > 100 µM (inactive)
- GI50 (SF-539): 74 µM (inactive)
- GI50 (SR): 24.7 µM (inactive)
- GI50 (MDA-MB-435): 17 µM (inactive)
- GI50 (EKVX): > 100 µM (inactive)
